Where two headings read alike, the source gives them in different places.
Key:
Erysiphe graminis = assay: Action against Erysiphe graminis on barley (residual-protective / systemic)
Protocol: Residual-protective action: Barley plants about 8 cm in height were sprayed to drip point with an aqueous spray mixture (max. 0.02 % active ingredient) and were dusted 3 to 4 days later with conidia of the fungus. The infected plants were stood in a greenhouse at 22°. Fungus infestation was generally evaluated 10 days after infection.
Systemic action: Barley plants about 8 cm in height were watered with an aqueous spray mixture (max. 0.002 % active ingredient, based on the volume of the soil). […] The plants were dusted with conidia of the fungus 3 to 4 days later. The infected plants were stood in a greenhouse at 22°. Fungus infestation was generally evaluated 10 days after infection.

Puccinia recondita = assay: Action against Puccinia recondita in wheat
Protocol: 7-day-old wheat plants were sprayed to drip point with a spray mixture prepared from a formulated active ingredient, or combination of active ingredients. After 4 days, the treated plants were infected with a conidia suspension of the fungus, and the treated plants were subsequently incubated for 2 days at a relative atmospheric humidity of 90-100% and 20 C. 10 days post-infection, the fungus infestation was assessed.

Pyricularia oryzae [1] = type: in vivo
Cercospora nicotianae = assay: Action against Cercospora nicotianae on tobacco plants; type: in vivo
[2] = test system: Peronospora parasitica Emwa; assay: Action against Peronospora parasitica Emwa in Arabidopsis thaliana (Ws), rRNA fungal probe; type: in vivo
[3] = test system: Peronospora parasitica isolate Emwa; assay: Action against Peronospora parasitica in Arabidopsis overexpressing NIM1 (lines 6E, 7C) and wild-type Ws; type: in vivo; conditions: for inhibition at 500 µg/mL: fosetyl 0.5 g/l; for inhibition at 5000 µg/mL: fosetyl 5.0 g/l
Source text: The plant lines used in this example (6E and 7C) were generated from transformation of wild-type Arabidopsis thaliana plants (ecotype Ws) with the BamHI-HindIII NIM1 genomic fragment (SEQ ID NO:1—bases 1249-5655), as described above in Example 21. The fungicides metalaxyl, fosetyl, and copper hydroxide, formulated as 25%, 80%, and 70% active ingredient (ai), respectively, with a wettable powder carrier, were applied as fine mist to leaves of three week-old transgenic Ws plants constitutively expressing the NIM1 gene. The wettable powder alone was applied as a control. Three days later, plants were inoculated with a Peronospora parasitica isolate Emwa conidial suspension (1-2×10^5 spores/ml), as described in Delaney et al. (1995). Following inoculation, plants were covered to maintain high humidity and were placed in a Percival growth chamber at 17° C. with a 14-hr day/10-hr night cycle (Uknes et al., 1993). Tissue was harvested 8 days after inoculation.
Fungal infection progression was followed for 12 days by viewing under a dissecting microscope to score development of conidiophores (Delaney, et al. (1994); Dietrich, et al. (1994)). Lactophenoltrypan blue staining of individual leaves was carried out to observe fungal growth within leaf tissue. Fungal growth was quantified using a rRNA fungal probe obtained by PCR according to White et al. (1990; PCR Protocols: A guide to Methods and Application, 315-322) using primers NS1 and NS2 and P. parasitica EmWa DNA as templates. RNA was purified from frozen tissue by phenol/chloroform extraction following lithium chloride precipitation (Lagrimini et al, 1987: PNAS, 84: 7542-7546). Samples (7.5 μg) were separated by electrophoresis through formaldehyde agarose gels and blotted to nylon membranes (Hybond-N+, Amersham) as described by Ausbel et al. (1987). Hybridizations and washing were according to Church and Gilbert (1984, PNAS, 81: 1991-1995). Relative amounts of the transcript were determined using a Phosphor Imager (Molecular Dynamics, Sunnyvale, Calif.) following manufacturers instructions. Sample loading was normalized by probing stripped filter blots with the constitutively expressed b-tubulin Arabidopsis cDNA.

[4] = test system: Colletotrichum lagenarium; assay: Action against Colletotrichum lagenarium on Cucumis sativus L., foliar application; type: in vivo
[5] = test system: Colletotrichum lagenarium; assay: Action against Colletotrichum lagenarium on Cucumis sativus L., soil application; type: in vivo
Pyricularia oryzae [6] = type: in vivo; remark: listed apart in the source
[7] = Hyaloperonospora parasitica, in Arabidopsis thaliana, Table 37, wt Ws, read-out: Fungal Growth Inhibition % O (observed)
[8] = Hyaloperonospora parasitica, in Arabidopsis thaliana, wild-type Ws (Table 38), read-out: Fungal Growth Inhibition % O (observed)

CC1(C)CCC(Cc2ccc(Cl)cc2)C1(O)Cn1cncn1 (stereo not shown) [metconazol, 5-(4-chlorobenzyl)-2,2-dimethyl-1-(1H-1,2,4-triazol-1-ylmethyl)-cyclopentanol]
% action O (observed) (Erysiphe graminis; Table 1, comp. II alone 0.6 ppm): 10% | % action O (observed) (Erysiphe graminis; Table 1, comp. II alone 2 ppm): 40% | % action O (observed) (Erysiphe graminis; Table 1, comp. II alone 6 ppm): 51% | % action O (observed) (Erysiphe graminis; Table 1, comp. II alone 20 ppm): 65% | % action O (observed) (Erysiphe graminis; Table 3, comp. II alone 6 ppm): 17% | % action O (observed) (Erysiphe graminis; Table 3, comp. II alone 20 ppm): 33% | % action O (observed) (Erysiphe graminis; Table 3, comp. II alone 60 ppm): 50%

CC(Cc1ccc(C(C)(C)C)cc1)CN1CCCCC1 (stereo not shown) [fenpropidine, 1-[3-(4-tert-butylphenyl)-2-methylpropyl]-piperidine]
% action O (observed) (Puccinia recondita; Table 20, comp. II alone 20 kg a.i. per ha): 40% | % action O (observed) (Puccinia recondita; Table 20, comp. II alone 60 kg a.i. per ha): 60%

CCC1(C(=O)NC(C)c2ccc(Cl)cc2)C(C)C1(Cl)Cl [KTU 3616, (1R,3S/1S,3R)-2,2-dichloro-N-[(R)-1-(4-chlorophenyl)ethyl]-1-ethyl-3-methylcyclopropanecarboxamide]
% action O (observed) (Pyricularia oryzae [1]; Table 13, comp. II alone 0.02 ppm): 0% | % action O (observed) (Pyricularia oryzae [1]; Table 13, comp. II alone 0.06 ppm): 28% | % action O (observed) (Pyricularia oryzae [1]; Table 13, comp. II alone 0.2 ppm): 47% | % action O (observed) (Pyricularia oryzae [1]; Table 13, comp. II alone 0.6 ppm): 79% | % action O (observed) (Pyricularia oryzae [1]; Table 13, comp. II alone 2 ppm): 83% | % action O (observed) (Pyricularia oryzae [1]; Table 13, comp. II alone 6 ppm): 91%

CC1COC(Cn2cncn2)(c2ccc(Oc3ccc(Cl)cc3)cc2Cl)O1 (stereo not shown) [difenoconazole, 1-{2-[2-chloro-4-(4-chlorophenoxy)phenyl]-4-methyl-1,3-dioxolan-2-ylmethy 1)-1H-1,2,4-triazole]
% action O (observed) (Cercospora nicotianae; Table 12, comp. II alone 0.6 kg a.i. per ha): 3% | % action O (observed) (Cercospora nicotianae; Table 12, comp. II alone 2 kg a.i. per ha): 23% | % action O (observed) (Cercospora nicotianae; Table 12, comp. II alone 6 kg a.i. per ha): 32%

CC(C1CC1)C(O)(Cn1cncn1)c1ccc(Cl)cc1 (stereo not shown) [cyproconazol, μ-(4-chlorophenyl)-μ-(1-cyclopropylethyl)-1H-1,2,4-triazole-1-ethanol]
% action O (observed) (Cercospora nicotianae; Table 10, comp. II alone 2 ppm): 0% | % action O (observed) (Cercospora nicotianae; Table 10, comp. II alone 6 ppm): 0%

CCO[PH](=O)O [fosetyl, ethyl hydrogen phosphonate]
inhibition at 40 µg/mL ([2]; Hyaloperonospora parasitica, in Arabidopsis thaliana, Table 31, Ws, fosetyl alone 0.04 g/l, read-out: Fungal Growth Inhibition % O (observed)): 0% | inhibition at 200 µg/mL ([2]; Hyaloperonospora parasitica, in Arabidopsis thaliana, Table 31, Ws, fosetyl alone 0.2 g/l, read-out: Fungal Growth Inhibition % O (observed)): 10% | inhibition at 1000 µg/mL ([2]; Hyaloperonospora parasitica, in Arabidopsis thaliana, Table 31, Ws, fosetyl alone 1.0 g/l, read-out: Fungal Growth Inhibition % O (observed)): 40% | inhibition at 50 µg/mL ([3]; Hyaloperonospora parasitica, in Arabidopsis thaliana, Table 37, wt Ws, fosetyl 0.05 g/l, read-out: Fungal Growth Inhibition % O (observed)): 0% | inhibition at 500 µg/mL [3, 7]: 2% | inhibition at 5000 µg/mL [3, 7]: 7% | inhibition at 500 µg/mL [3, 8]: 2% | inhibition at 5000 µg/mL [3, 8]: 7%

CO/C=C(/C(=O)OC)c1ccccc1Oc1cc(Oc2ccccc2C#N)ncn1 [azoxystrobin, methyl-(E)-2-{2-[6-(2-cyanophenoxy)pyrimidin-4-yloxy]phenyl}-3-methoxyacrylate]
% action O (observed) ([4]; Table 4, comp. II alone 0.06 ppm): 5% | % action O (observed) ([4]; Table 4, comp. II alone 0.2 ppm): 9% | % action O (observed) ([4]; Table 4, comp. II alone 0.6 ppm): 12% | % action O (observed) ([4]; Table 4, comp. II alone 6 ppm): 17% | % action O (observed) ([4]; Table 7, comp. II alone 2 ppm): 18% | % action O (observed) ([4]; Table 7, comp. II alone 6 ppm): 75% | % action O (observed) ([5]; Table 5, comp. II alone 0.2 ppm): 0% | % action O (observed) ([5]; Table 5, comp. II alone 0.6 ppm): 9% | % action O (observed) ([5]; Table 5, comp. II alone 2 ppm): 28% | % action O (observed) ([5]; Table 5, comp. II alone 6 ppm): 66% | % action O (observed) ([5]; Table 8, comp. II alone 0.02 ppm): 1% | % action O (observed) ([5]; Table 8, comp. II alone 0.06 ppm): 5% | % action O (observed) ([5]; Table 8, comp. II alone 0.6 ppm): 27% | % action O (observed) ([5]; Table 8, comp. II alone 2 ppm): 61% | % action O (observed) ([5]; Table 8, comp. II alone 6 ppm): 93%

CC(C)(C)C(O)(CCc1ccc(Cl)cc1)Cn1cncn1 (stereo not shown) [tebuconazol, μ-[2-(4-chlorophenyl)ethyl]-μ-(1,1-dimethylethyl)-1H-1,2,4-triazole-1-ethanol]
% action O (observed) (Cercospora nicotianae; Table 9, comp. II alone 2 ppm): 0% | % action O (observed) (Cercospora nicotianae; Table 9, comp. II alone 6 ppm): 0%

CO/N=C(/C(=O)OC)c1ccccc1COc1ccccc1C [cresoxime methyl, methyl-(E)-2-methoximino-2-[μ-(o-tolyloxy)-o-tolyl]acetate]
% action O (observed) ([4]; Table 6, comp. II alone 2 ppm): 0% | % action O (observed) ([4]; Table 6, comp. II alone 20 ppm): 41%

[Cu+2].[OH-].[OH-] [Cu(OH)2, copper hydroxide]
Fungal Growth Inhibition % O (observed) ([2]; Table 32, Ws, Cu(OH)2 alone 0.01 g/l): 0% | Fungal Growth Inhibition % O (observed) ([3]; Cu(OH)2 0.02 g/l, wild-type Ws (Table 39)): 0% | Fungal Growth Inhibition % O (observed) ([3]; Cu(OH)2 0.02 g/l, wild-type Ws (Table 40)): 0% | Fungal Growth Inhibition % O (observed) ([3]; Cu(OH)2 0.2 g/l, wild-type Ws (Table 39)): 0% | Fungal Growth Inhibition % O (observed) ([3]; Cu(OH)2 0.2 g/l, wild-type Ws (Table 40)): 0% | Fungal Growth Inhibition % O (observed) ([3]; Cu(OH)2 2.0 g/l, wild-type Ws (Table 39)): 0% | Fungal Growth Inhibition % O (observed) ([3]; Cu(OH)2 2.0 g/l, wild-type Ws (Table 40)): 0%

Cc1cccc2sc3nncn3c12 [tricyclazole, 5-methyl-1,2,4-triazolo[3,4-b][1,3]benzothiazole]
% action O (observed) (Pyricularia oryzae [6]; Table 15, comp. II alone 0.1 ppm): 32% | % action O (observed) (Pyricularia oryzae [6]; Table 15, comp. II alone 0.25 ppm): 48% | % action O (observed) (Pyricularia oryzae [6]; Table 15, comp. II alone 0.5 ppm): 71% | % action O (observed) (Pyricularia oryzae [6]; Table 15, comp. II alone 1 ppm): 74%

CC(Cc1ccc(C(C)(C)C)cc1)CN1C[C@@H](C)O[C@@H](C)C1 (relative stereo) [fenpropimorph, cis-4-[3-(4-tert-butylphenyl)-2-methylpropyl]-2,6-dimethylmorpholine]
% action O (observed) (Cercospora nicotianae; Table 11, comp. II alone 2 kg a.i. per ha): 13% | % action O (observed) (Cercospora nicotianae; Table 11, comp. II alone 6 kg a.i. per ha): 23% | % action O (observed) (Cercospora nicotianae; Table 11, comp. II alone 10 kg a.i. per ha): 42%
